Literature values in US20140079639A1, “METHODS AND COMPOSITIONS FOR IDENTIFYING, PRODUCING AND USING PLANT-DERIVED PRODUCTS FOR MODULATING CELL FUNCTION AND AGING” (LIFESPAN EXTENSION, LLC, priority 2009, published 2014).
One block for each molecule: values may come before it.

How the values were obtained:
fibroblast cells = conditions: cells treated in culture
[1] = oxidation of lipids due to e.g. UV radiation or free radical damage
[2] = when absorbed into the body

Structure (SMILES): NCCC(=O)N[C@@H](Cc1cnc[nH]1)C(=O)O [Carnosine]
extension of lifespan of fibroblast cells past the Hayflick limit of non-treated cells (fibroblast cells): up to 10 divisions

Structure (SMILES): COC1=C(OC)C(=O)C(CCCCCCCCCCO)=C(C)C1=O [idebenone, 6-(10-hydroxydecyl)-2,3-dimethoxy-5-methyl-1,4-benzoquin-one]
reduction of lipid hydroperoxides among the tested antioxidants [1]: highest reduction

solubility: soluble in water and alcohol
Structure (SMILES): O=C(O)/C=C/c1ccc(O)c(O)c1 [Caffeic Acid, (E)-3-(3,4-dihydroxyphenyl)-2-propenoic acid]

Structure (SMILES): COC1=C(OC)C(=O)C(C/C=C(\C)CC/C=C(\C)CC/C=C(\C)CC/C=C(\C)CC/C=C(\C)CC/C=C(\C)CC/C=C(\C)CC/C=C(\C)CC/C=C(\C)CCC=C(C)C)=C(C)C1=O [ubiquinone, Ubiquinone]
conversion to the active antioxidant form ubiquinol [2]: 90%
